Patent US9474757B2, “Methods for treating cancer using TOR kinase inhibitor combination therapy” (Signal Pharmaceuticals, LLC, priority 2013, dated 2016)
“Also recorded” adds a separate entry of the source.

Legend:
[1] = test system: WSU-DLCL2 xenograft; assay: DLBCL xenograft model (WSU-DLCL2); type: in vivo, SCID mice; conditions: for decrease in tumor volume (TVR) vs vehicle: Day 34, Compound 1 10 mg/kg QD, Compound A 30 mg/kg QD, Compound AA 50 mg/kg BID, oral; for tumor volume reduction (TVR) vs vehicle: initial study, oral QD, end of 3-week dosing, Day 35
Experimental: Severe combined immunodeficiency (SCID) mice were implanted with human DLBCL cell line (WSU-DLCL2) into the flank. Treatment of compounds started between Day 11 and Day 14 after cell inoculation. Randomized groups of mice (n=9 to 10/group) were treated with the single agents (Compound 1, Compound A or Compound AA) or the combination of Compound 1/Compound A, Compound A/Compound AA, or Compound 1/Compound AA. Compounds were administered orally on a once daily (Compound 1 and Compound A) or twice daily […] schedule for 21 days. The positive control consisted of CHOP therapy (combination of cyclophosphamide, doxorubicin, vincristine and prednisone). Compound 1 and Compound A were formulated in CMC-Tween (carboxymethylcellulose/Tween 80/deionized water). Compound AA was suspended in DSP (dimethylsulphoxide/solutol/phosphate buffered saline).
Initial studies were conducted in order to determine the antitumor activity of Compound 1 and to identify a dose level for the combination studies. In the WSU-DLCL2 xenograft model, Compound 1 inhibited tumor growth in a dose-dependent fashion. […] In a subsequent combination study, Compound 1 was dosed at 10 mg/kg, once daily (QD). Compound A and Compound AA were dosed at 30 mg/kg (QD) and 50 mg/kg (BID), respectively.

[2] = test system: OCI-Ly10 xenograft; assay: OCI-Ly10 DLBCL xenograft model; type: in vivo, SCID mice
Description: OCI-Ly10 cells are derived from a diffuse-large B-cell lymphoma, a type of non-Hodgkins lymphoma. Female SCID mice (Fox Chase SCID®, CB 17/Icr-Prkdcscid, Charles River), characterized by severe combined T and B cell immunodeficiency, were 10 weeks old, with body weights ranging from 15.4 to 24.2 g, on Day 1 of this study. In brief, female CB.17 SCID mice were inoculated with 5×10^6 OCI-Ly10 cells subcutaneously, and tumors were allowed to grow to approximately 100-150 mm^3 before stratification into treatment groups, so as to yield groups with comparably sized tumors prior to treatment. In addition to the efficacy treatment groups, some mice were stratified into short-term treatment groups and their tumors were collected 4 hours post final dosing in groups that received saline, 30 mg/kg or 10 mg/kg Compound A, or 3 mg/kg Compound 1 once daily for seven days, starting on day 27. Frozen, and fixed paraffin-embedded, samples were analyzed. In the efficacy arm of the study, dosing began on Day 1 (D1) in 12 groups of mice (n=10/group) with established subcutaneous tumors (mean volumes, 120-129 mm^3). Compound A (at two dose levels) and Compound 1 (at one dose level) were each administered once daily for 28 days (qd×28). Control mice received the vehicle, 5% DMSO/15% Solutol® HS15/80% PBS, p.o. b.i.d.×28. On D29 a 21-day dosing extension, from day 33 to day 53, in the control and five test groups was implemented, resulting in b.i.d.×28/4/21 or qd×28/4/21 schedules for these groups.
Tumors were calipered twice weekly, and each mouse in the efficacy study was euthanized when its tumor reached the 1000 mm^3 volume endpoint, or on day 61, whichever came first. Efficacy was determined from tumor growth delay (TGD), defined as the increase in the median time-to-endpoint (TTE) in drug-treated (T) versus vehicle-treated (C) mice, and from the significance of survival extension.

[3] = test system: SUDHL4 (DLBCL) xenografts; assay: CIVO arrayed microinjection, SUDHL4 xenograft, cleaved caspase 3; type: in vivo, Nu/Nu mice; conditions: systemic Compound A 30 mpk QD×8 -/+ dexamethasone 5 mpk, local Compound 2 13 μg in 4 μL
Experimental: (§1) Anesthetized Nu/Nu mice harboring xenografted tumors were injected with multiple individual compounds or compound combinations, simultaneously, each into a distinct location of the tumor. Precise, controlled delivery of the compounds was evaluated for spatially defined and cellular changes around sites of tumor microinjection across xenograft models of DLBCL. Tumors were resected and injection quality was assessed by IVIS imaging of co-injected near-infrared tracking dye. Sections from representative regions down the z-axis of the tumor were prepared for staining with biomarkers of pathway inhibition and tumor response. Samples were then batch scanned in a Caliper Pannoramic slide scanner, resulting in high resolution images compatible with single cell analysis and subsequent data quantification via Presage's CIVO™ analyzer custom image analysis platform (for technology description, see R. Klinghoffer et al, AACR, 2014 and Presagebio.com).
In order to evaluate combination effects of Compound A with other compounds in the DLBCL model SUDHL4, vehicle or Compound A (30 mpk QD×8)−/+ dexamethasone (5 mpk QD×8) was given systemically. […] Apoptosis was evaluated by measurement of the apoptosis marker, cleaved caspase 3 (CC3), which was plotted as a function of distance from the injection site.

[4] = test system: OCILy10 xenografts; assay: CIVO arrayed microinjection, OCILy10 xenograft, cleaved caspase 3; type: in vivo, Nu/Nu mice
Experimental: as §1
In order to evaluate combination treatment with Compound 1, Compound A and Compound AA, mice with OCILy10 xenografts were treated systemically with Compound A 30 mpk QD×4 followed by Compound A 30 mpk and Compound 110 mpk QD×3. At 3 hours after the 7th systemic dose, Compound AA (15.4 μg in 4 μL injected) was injected locally at three sites. […]

[5] = test system: HepG2 cells; assay: Anchorage independent growth colony formation assay, HepG2; type: cell-based, Human; conditions: for colony formation, % of control: HepG2, single agent, 8 days
Experimental: (§2) Cell Lines/Cells. Human cell lines HepG2 and SK-Hep-1 cells were obtained from American Type Culture Collection (ATCC; Manassas, Va.). Cells were cultured in DMEM (Dulbecco's Modified Eagle's Medium) (Mediatech; Mannasas, Va.) with 10% Premium FBS (Lonza, Walkersville, Md.).
(1) Single Agent Colony Formation Assay. Nobel Agar (1.2 grams; BD; Franklin Lakes, N.J.) was placed in a 100-mL sterile bottle. Sterile water (100 mL) was added and microwaved until the agar boiled. Equal volumes of agar and 2×RPMI medium (ECE Scientific; Doylestown, Pa.) were mixed and 300 μL were transferred to each well in a 24-well flat bottom plate (BD; Franklin Lakes, N.J.). Plates were kept at 4° C. until the agar solidified. Cultures of HepG2 and SK-Hep-1 cells were harvested and resuspended in culture medium at 3.6×10^3 cells/mL. Equal volumes of agar, 2×RPMI, and cell suspension (1:1:1) were mixed in a sterile tube and 500 μL/well were immediately transferred into the 24-well plates. Plates were kept at 4° C. until the agar solidified. Culture medium (500 μL) containing compound or DMSO was added to each well (final DMSO concentration for each treatment was 0.2%). Compound 1 was tested at final concentrations of 0.1, 0.3, 1, 3, 10 and 30 μM. Cell treatments were set up in triplicate. Cells were incubated for 8-10 days at 37° C. in a 5% CO2 atmosphere. Photographs (2× magnification) of each well were taken using a Nikon DXM1200 Digital Camera and Nikon ACT1 software and saved as a TIFF file. ImageQuant TL (GE Healthcare; Piscataway, N.J.) Colony Count Software was used to count colonies. (2) Combination Study Colony Formation Assay. Nobel Agar (1.2 grams; BD; Franklin Lakes, N.J.) was placed in a 100-mL sterile bottle. Sterile water (100 mL) was added and microwaved until the agar boiled. Equal volumes of agar and 2×RPMI medium (ECE Scientific; Doylestown, Pa.) were mixed and 300 μL were transferred to each well in a 24-well flat bottom plate (BD; Franklin Lakes, N.J.). Plates were kept at 4° C. until the agar solidified. Cultures of HepG2 and SK-Hep-1 cells were harvested and resuspended in culture medium at 3.6×10^3 cells/mL. Equal volumes of agar, 2×RPMI, and cell suspension (1:1:1) were mixed in a sterile tube and 500 µL/well were immediately transferred into the 24-well plates. Plates were kept at 4° C. until the agar solidified. Culture medium (500 μL) containing compound or DMSO was added to each well (final DMSO concentration for each treatment was 0.2%). Cells were treated with single treatment as follows: Compound 1 was tested at final concentrations of 0.1 and 0.3 μM. Cell treatments were set up in triplicate. Cells were incubated for 8-10 days at 37° C. in a 5% CO2 atmosphere. Photographs (2× magnification) of each well were taken using a Nikon DXM1200 Digital Camera and Nikon ACT1 software and saved as a TIFF file. ImageQuant TL (GE Healthcare; Piscataway, N.J.) Colony Count Software was used to count colonies.
(§3) Significance versus the DMSO control was calculated using One Way ANOVA and Dunnett's Post test or unpaired t tests using GraphPad Prism v5.01.

[6] = test system: SK-Hep-1 cells; assay: Anchorage independent growth colony formation assay, SK-Hep-1; type: cell-based, Human
Experimental: as §2
(1) Single Agent Colony Formation Assay. Nobel Agar (1.2 grams; BD; Franklin Lakes, N.J.) was placed in a 100-mL sterile bottle. Sterile water (100 mL) was added and microwaved until the agar boiled. Equal volumes of agar and 2×RPMI medium (ECE Scientific; Doylestown, Pa.) were mixed and 300 μL were transferred to each well in a 24-well flat bottom plate (BD; Franklin Lakes, N.J.). Plates were kept at 4° C. until the agar solidified. Cultures of HepG2 and SK-Hep-1 cells were harvested and resuspended in culture medium at 3.6×10^3 cells/mL. Equal volumes of agar, 2×RPMI, and cell suspension (1:1:1) were mixed in a sterile tube and 500 μL/well were immediately transferred into the 24-well plates. Plates were kept at 4° C. until the agar solidified. Culture medium (500 μL) containing compound or DMSO was added to each well (final DMSO concentration for each treatment was 0.2%). Compound 1 was tested at final concentrations of 0.1, 0.3, 1, 3, 10 and 30 μM. Cell treatments were set up in triplicate. Cells were incubated for 8-10 days at 37° C. in a 5% CO2 atmosphere. Photographs (2× magnification) of each well were taken using a Nikon DXM1200 Digital Camera and Nikon ACT1 software and saved as a TIFF file. ImageQuant TL (GE Healthcare; Piscataway, N.J.) Colony Count Software was used to count colonies. (2) Combination Study Colony Formation Assay. Nobel Agar (1.2 grams; BD; Franklin Lakes, N.J.) was placed in a 100-mL sterile bottle. Sterile water (100 mL) was added and microwaved until the agar boiled. […]
as §3

[7] = test system: doxorubicin-resistant Ramos cell xenografts; assay: CIVO local injection, parental and doxorubicin-resistant RAMOS xenograft, cleaved caspase 3; type: in vivo, Nu/Nu mice; conditions: tumors harvested 24 hour post injection
Experimental: as §1
Mice with parental or doxorubicin-resistant Ramos cell xenografts were injected locally with vehicle (4 μL), Compound 2 (13 μg in 4 μL injected), Compound 1 (39 μg in 4 μL injected), or Vincristine (1.47 μg in 4 μL (400 μM) injected). Tumors were harvested 24 hour post injection.

[8] = combination study, single agents or in combination
[9] = 28-day schedule: Compound A 30 mg/kg qd×28, alone or with Compound 1
[10] = extended schedule qd×28/4/21: Compound A 10 mg/kg, Compound 1 3 mg/kg
[11] = extended schedule qd×28/4/21: Compound A 10 mg/kg, Compound 1 3 mg/kg, alone or combined

## Cc1nc2cccc(N)c2c(=O)n1C1CCC(=O)NC1=O (centres unmarked) [Compound A, 3-(5-Amino-2-methyl-4-oxoquinazolin-3(4H)-yl)-piperidine-2,6-dione]
[1]; combination study
  decrease in tumor volume (TVR) vs vehicle: 30%
[1]; [8]
  body weight loss: No significant body weight loss
[2]; 28-day schedule: Compound A 30 mg/kg qd×28
  tumor growth delay (TGD), %: 88%
[2]; [9]
  PRs: two
  survivors (n=10/group): seven
  tumor growth delay (TGD): 28.6 days
[2]; [10]
  tumor growth delay (TGD), %: 27%
[2]; [11]
  PRs / regressions: no regressions
  survivors (n=10/group): three
  tumor growth delay (TGD): 8.9 days
[3]
  apoptosis (cleaved caspase 3) induced by local treatment with Compound 2: enhanced induction of apoptosis
[3]; listed as compound A
  apoptosis (cleaved caspase 3) induced by local treatment with Compound 2: enhanced cell death
[4]; systemic Compound A 30 mpk, with or without Compound 1 10 mpk, local Compound AA
  cell death (CC3 positive sites) at Compound AA injection sites: did not lead to cell death
[4]; systemic dose, local injection of Compound AA 15.4 μg in 4 μL, total sites 18 and 26
  CC3 positive sites: 0

## CO[C@H]1CC[C@H](N2C(=O)CNc3ncc(-c4ccc(C(C)(C)O)nc4)nc32)CC1 [Compound 1, 7-(6-(2-hydroxypropan-2-yl)pyridin-3-yl)-1-((1r,4r)-4-methoxycyclohexyl)-3,4-dihydropyrazino-[2,3-b]pyrazin-2(1H)-one]
[5]; HepG2, concentrations of 0.1 to 100 μM
  anti-colony forming activity: dose-dependent and significant anti-colony forming activity
[5]; 0.1 μM
  colony formation, % of control: 74 % of control
[5]; 0.3 μM
  colony formation, % of control: 57 % of control
[5]; 1 μM
  colony formation, % of control: 33 % of control
[5]; 3 μM
  colony formation, % of control: 24 % of control
[5]; 10 μM
  colony formation, % of control: 16 % of control
[5]; 30 μM
  colony formation, % of control: 11 % of control
[6]; SK-Hep-1, concentrations of 0.1 to 100 μM
  anti-colony forming activity: dose-dependent and significant anti-colony forming activity
[6]; SK-Hep-1, single agent, 3 μM and higher
  inhibition of colony formation: 100%
[6]; SK-Hep-1, single agent, 0.3-30 μM, 8-10 days
  colony formation, % of control: 0-45 % of control
[1]; combination study
  decrease in tumor volume (TVR) vs vehicle: 29%
[1]; [8]
  body weight loss: No significant body weight loss
[1]; 1 mg/kg
  tumor volume reduction (TVR) vs vehicle: ~22%
[1]; 3 mg/kg
  tumor volume reduction (TVR) vs vehicle: ~28%
[1]; initial study, 1, 3 and 10 mg/kg
  body weight loss: No significant body weight loss
[2]; [10]
  tumor growth delay (TGD), %: 73%
[2]; [11]
  PRs / regressions: one
  survivors (n=10/group): five
  tumor growth delay (TGD): 23.8 days

## CC[C@]1(O)C[C@H]2CN(CCc3c([nH]c4ccccc34)[C@@](C(=O)OC)(c3cc4c(cc3OC)N(C=O)[C@H]3[C@@](O)(C(=O)OC)[C@H](OC(C)=O)[C@]5(CC)C=CCN6CC[C@]43[C@@H]65)C2)C1 [Vincristine, reference compound]
[7]
  sensitivity of doxorubicin resistant vs parental Ramos cells (cleaved caspase 3 vs distance from injection site): resistant

## CCN1C(=O)CNc2ncc(-c3ccc(-c4nc[nH]n4)nc3C)nc21 [Compound 2, 1-ethyl-7-(2-methyl-6-(1H-1,2,4-triazol-3-yl)pyridin-3-yl)-3,4-dihydropyrazino[2,3-b]pyrazin-2(1H)-one]
[7]
  sensitivity of doxorubicin resistant vs parental Ramos cells (cleaved caspase 3 vs distance from injection site): increased sensitivity; also recorded: more sensitive
